Data taken from patent US20050064050A1 (priority 1999, published 2005).

Experiments:
[1] = molecular target: botulinum neurotoxin (BoNT/A) (Clostridium botulinum, UniProt P0DPI0); design: key to BoNT neutralization effects of tea-leaf extract ingredients: Effect: +: Effective in neutralization; −: Ineffective in neutralization
mouse = settings: in vivo, po

Sequence of botulinum neurotoxin (BoNT/A) (P0DPI0 whole entry, looked up): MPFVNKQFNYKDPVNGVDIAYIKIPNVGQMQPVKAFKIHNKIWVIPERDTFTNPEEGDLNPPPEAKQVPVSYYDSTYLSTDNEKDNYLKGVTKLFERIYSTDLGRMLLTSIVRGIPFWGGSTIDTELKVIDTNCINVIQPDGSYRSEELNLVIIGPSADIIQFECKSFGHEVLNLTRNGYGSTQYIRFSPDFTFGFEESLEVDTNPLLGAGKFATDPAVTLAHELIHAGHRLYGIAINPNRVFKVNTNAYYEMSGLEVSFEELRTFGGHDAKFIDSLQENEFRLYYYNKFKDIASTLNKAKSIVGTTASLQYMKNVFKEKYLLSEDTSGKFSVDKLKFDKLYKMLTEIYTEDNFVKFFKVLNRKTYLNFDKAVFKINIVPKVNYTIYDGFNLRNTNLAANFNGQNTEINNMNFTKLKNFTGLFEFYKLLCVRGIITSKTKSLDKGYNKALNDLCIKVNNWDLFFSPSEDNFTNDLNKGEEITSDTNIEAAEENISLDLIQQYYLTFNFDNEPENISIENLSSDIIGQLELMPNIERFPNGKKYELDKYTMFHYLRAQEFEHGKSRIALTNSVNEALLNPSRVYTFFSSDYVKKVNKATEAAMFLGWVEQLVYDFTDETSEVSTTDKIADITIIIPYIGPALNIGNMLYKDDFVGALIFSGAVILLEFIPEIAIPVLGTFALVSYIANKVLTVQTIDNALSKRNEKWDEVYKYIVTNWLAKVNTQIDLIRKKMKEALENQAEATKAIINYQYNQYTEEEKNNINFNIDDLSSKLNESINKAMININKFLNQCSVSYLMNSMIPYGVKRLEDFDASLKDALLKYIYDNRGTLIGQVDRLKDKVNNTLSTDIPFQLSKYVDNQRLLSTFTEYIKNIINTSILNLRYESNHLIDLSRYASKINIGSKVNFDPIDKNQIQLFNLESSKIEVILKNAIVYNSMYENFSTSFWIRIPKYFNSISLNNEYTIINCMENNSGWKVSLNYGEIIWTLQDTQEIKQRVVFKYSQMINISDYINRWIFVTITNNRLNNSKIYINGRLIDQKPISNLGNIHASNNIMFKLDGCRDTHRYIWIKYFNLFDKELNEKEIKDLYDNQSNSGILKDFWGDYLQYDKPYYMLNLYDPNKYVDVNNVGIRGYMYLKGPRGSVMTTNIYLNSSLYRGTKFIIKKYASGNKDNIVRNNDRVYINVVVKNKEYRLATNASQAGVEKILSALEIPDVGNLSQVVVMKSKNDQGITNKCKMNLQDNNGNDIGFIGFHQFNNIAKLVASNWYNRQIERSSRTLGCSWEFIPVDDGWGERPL

Compound | BoNT neutralization effects of tea-leaf extract ingredients: Effect [1] | BoNT neutralizing effect (in words) [1] | toxicity (in words) (mouse)
O=C(OC[C@H]1O[C@@H](OC(=O)c2cc(O)c(O)c(OC(=O)c3cc(O)c(O)c(O)c3)c2)[C@H](OC(=O)c2cc(O)c(O)c(OC(=O)c3cc(O)c(O)c(O)c3)c2)[C@@H](OC(=O)c2cc(O)c(O)c(OC(=O)c3cc(O)c(O)c(O)c3)c2)[C@@H]1OC(=O)c1cc(O)c(O)c(OC(=O)c2cc(O)c(O)c(O)c2)c1)c1cc(O)c(O)c(OC(=O)c2cc(O)c(O)c(O)c2)c1 [Tannic Acid, tannic acid] | − | showed no neutralizing effect | 
O=c1c(O)cc([C@H]2Oc3cc(O)cc(O)c3C[C@H]2O)cc2c([C@H]3Oc4cc(O)cc(O)c4C[C@H]3O)cc(O)c(O)c12 [Theaflavin, theaflavin] | − | showed no neutralizing effect | 
catechin | − | showed no neutralizing effect | 
thearubigin |  |  | no toxicity
